Test results taken from patent US12115165B2, “Use of reboxetine to treat narcolepsy” (AXSOME THERAPEUTICS, INC., priority 2018, dated 2024).
Values joined by “and” are separate entries in the source; they are usually repeats but may differ in a detail not shown here. Equal entries are not always repeated.

How the values were obtained:
[1] = test system: patients with a diagnosis of narcolepsy with cataplexy; assay: Phase 2, double-blind, randomized, placebo-controlled, crossover, multicenter trial of reboxetine in patients with narcolepsy; assay type: in vivo, human
Experimental: A Phase 2, double-blind, randomized, placebo-controlled, crossover, multicenter trial of reboxetine was carried out in patients with narcolepsy. A total of 21 patients with a diagnosis of narcolepsy with cataplexy were treated for 2 weeks with reboxetine or with placebo, followed by a crossover to the other treatment after a 1-week down-titration and washout period. Reboxetine was administered orally twice daily, with a total daily dose of 8 mg for Week 1 which was escalated to 10 mg for Week 2. Patients were randomized in a 1:1 ratio either to treatment with reboxetine followed by placebo (sequence 1), or to treatment with placebo followed by reboxetine (sequence 2). The average number of cataplexy attacks at baseline was 30. Key assessments were made daily using an electronic diary. The prespecified primary endpoint was the change in the weekly number of cataplexy attacks, averaged over the 2-week treatment period (overall treatment effect). Secondary endpoints included changes in the number of inadvertent naps, cognition, and Epworth Sleepiness Scale. Cognition was assessed using the Ability to Concentrate item of the Narcolepsy Symptom Assessment Questionnaire, a patient reported outcome measure. This item is rated on 5-point scale (1=very good to 5=very poor). All analyses were conducted on an intent-to-treat basis.

[2] = test system: patient diagnosed as suffering from narcolepsy with cataplexy; assay: Single-patient examples: reboxetine 5 mg at 8 am and 5 mg at 1 pm for three weeks in narcolepsy with cataplexy; assay type: in vivo, human
Experimental: (§1) A person is diagnosed as suffering from narcolepsy with cataplexy. They are given reboxetine and instructed to take 5 mg of reboxetine at 8 am and 5 mg of reboxetine at 1 pm for three weeks. The patient is evaluated prior to treatment, and weekly to determine the MWT score, the number of cataplexy attacks, the PGI-C score, the HAM-D score, the ESS score, the NSAQ score, and the ability to concentrate on the NSAQ. After one week of treatment, the number of cataplexy attacks have decreased by 10-30%.
as §1, with “30-60%.” for “10-30%.”
as §1, with “60-100%.” for “10-30%.”
as §1, with “ESS score has” for “number of cataplexy attacks have”
as §1, with “ESS score has” for “number of cataplexy attacks have”, “30-60%.” for “10-30%.”
as §1, with “ESS score has” for “number of cataplexy attacks have”, “60-100%.” for “10-30%.”
as §1, with “MWT score has” for “number of cataplexy attacks have”
as §1, with “MWT score has” for “number of cataplexy attacks have”, “30-60%. […]” for “10-30%.”

[3] = human patients; without controlled release coating; cited from earlier work

CCOc1ccccc1OC(c1ccccc1)C1CNCCO1 (centres unmarked) [reboxetine]
patients with an ability to concentrate that was good to very good (Ability to Concentrate item of the NSAQ) ([1]; Week 1, p=0.007 vs placebo): 38.1% | mean reduction from baseline in cataplexy attacks ([1]; Week 2): 48.7% | mean reduction of cataplexy attacks per week ([1]; Week 2, baseline average 30 attacks, p=0.002 vs placebo): 14.6 cataplexy attacks per week | mean reduction from baseline in the average weekly number of inadvertent naps ([1]; Week 2, p<0.001 vs placebo, FIG. 5): 31.8% | proportion of patients achieving a 50% or greater reduction in the weekly number of cataplexy attacks ([1]; Week 2, p=0.003 vs placebo, FIG. 2): 76.2% | proportion of patients achieving a 75% or greater reduction in the weekly number of cataplexy attacks ([1]; Week 2, p=0.018 vs placebo, FIG. 3): 42.9% | mean reduction from baseline in cataplexy attacks ([1]; after 1-week treatment): 43.3% | mean reduction of cataplexy attacks ([1]; after 1-week treatment, p<0.001 vs placebo): 13.0 cataplexy attacks | patients with reductions in hypnagogic hallucinations ([1]; as compared to placebo, FIG. 9): greater proportion of patients with reductions | patients with reductions in sleep paralysis episodes ([1]; as compared to placebo, FIG. 9): greater proportion of patients with reductions | patients with an ability to concentrate that was good to very good (Ability to Concentrate item of the NSAQ) ([1]; end of the 2-week treatment period, 0% at baseline): 42.9% | discontinuations due to adverse events ([1]; human, in vivo): no discontinuations due to adverse events | most commonly reported adverse events ([1]; human, in vivo): anxiety, constipation, and insomnia | safety and tolerability ([1]; human, in vivo): safe and well tolerated | serious adverse events ([1]; human, in vivo): no serious adverse events | reduction in the Epworth Sleepiness Scale (ESS) score from baseline ([1]; p=0.003 vs placebo, FIG. 4): 6.0 | patients reporting improved sleep quality ([1]; p=0.007 vs placebo, FIG. 9): 45.0% | patients with 50% or greater reduction in inadvertent naps ([1]; p=0.036 vs placebo, FIG. 6): 38.1% | patients reporting a reduction in the number of awakenings at night ([1]; p=0.044 vs placebo, FIG. 9): 30.0% | overall percentage of patients experiencing adverse events ([1]; placebo 40.0%): 42.9% | reduction from baseline in the mean weekly number of cataplexy attacks, averaged for the 2-week treatment period (overall treatment effect), primary endpoint ([1]; vs placebo, p<0.001, 8 mg/day Week 1, 10 mg/day Week 2, oral twice daily, FIG. 1): highly statistically significant reduction | decrease in ESS score ([2]; after one week of treatment): 10-30% and 30-60% and 60-100% | decrease in MWT score ([2]; after one week of treatment): 10-30% and 30-60% and 60-100% | decrease in number of cataplexy attacks ([2]; after one week of treatment): 10-30% and 30-60% and 60-100% | decrease in ESS score ([2]; after three weeks of treatment): 10-30% and 30-60% and 60-100% | decrease in HAM-D score ([2]; after three weeks of treatment): 10-30% and 30-60% and 60-100% | decrease in MWT score ([2]; after three weeks of treatment): 10-30% and 30-60% and 60-100% | decrease in number of cataplexy attacks ([2]; after three weeks of treatment): 10-30% and 30-60% and 60-100% | time to reach a maximum plasma concentration [3]: 2 to 4 h
